From publication PMC12068666, “Synthesis of thiazole-integrated pyrrolotriazinones: evaluations of cytotoxicity and effects on PI3K levels in cancer cells” (Turkish Journal of Chemistry, 2025)
“Also recorded” adds a separate entry of the source.

Tests used:
NIH/3T3 cells = test: MTT assay, healthy cell line NIH/3T3; format: cell-based; conditions: Mus musculus, NIH3T3, 24 h treatment, mean ± SD
Protocol: (§1) MCF-7 (human ER + breast cancer, HTB-22, USA), A549 (human nonsmall cell lung cancer, ATTC CRM-CCL-185, USA), HepG2 (human liver cancer, ATTC HB-8065, USA), and NIH/3T3 (mouse embryonic fibroblast, ATCC, CRL-1658, USA) cells were maintained in DMEM supplemented with 10% fetal bovine serum and 1% penicillin/streptomycin. The cells were maintained under appropriate conditions (37 °C, 5% CO2).
(§2) The antiproliferative activity of the newly synthesized compounds was measured using the MTT assay as described in a previous study. Briefly, cells were seeded at a density of 6 × 10^3 cells/well and incubated for 24 h in a 37 °C humidified incubator with 5% CO2. Afterwards, the cells were treated with increasing concentrations (1, 2.5, 5, 10, 25, 50, 75, and 100 μM) of compounds and incubated for another 24 h. Moreover, some cells were incubated with doxorubicin (1, 5, 10, 25, and 50 μM) for comparison, while other cells treated only with 1% DMSO was used as the solvent control. After incubation, 20 μL of MTT solution (5 mg/mL in PBS) was added to each well, and the plate was incubated for 4 h under the same conditions. Following this period, the medium was discarded and replaced with DMSO. The absorbance of dissolved formazan crystals was measured using a multiplate reader. The IC50 value and the selectivity index of each compound were calculated as previously described.
(§3) The antiproliferative effect of all newly synthesized thiazole-integrated pyrrolotriazinone derivatives were assessed against cancer cell lines (MCF-7, A549, and HepG2) as well as a healthy cell line (NIH/3T3) using the MTT assay. The IC50 values were determined through the nonlinear regression algorithm for log (inhibitor) versus normalized response-variable slope, as implemented in GraphPad [Y = 100/(1 + 10^X−LogIC50), where X represents the logarithm of the inhibitor concentration and Y denotes the response]. Additionally, Selectivity Indices (SI: IC50 of healthy cells/IC50 of cancer cells) were calculated.

MCF-7 cells = test: MTT assay, antiproliferative activity, MCF-7; format: cell-based, human; conditions: for IC50: Homo sapiens, MCF7, MTT, 24 h treatment, mean ± SD; for Selectivity Index (SI) MCF-7: IC50 of healthy cells (NIH/3T3)/IC50 of cancer cells
Protocol: as §1, §2, §3

A549 cells = test: MTT assay, antiproliferative activity, A549; format: cell-based, human; conditions: for IC50: Homo sapiens, A549, MTT, 24 h treatment, mean ± SD; for Selectivity Index (SI) A549: IC50 of healthy cells (NIH/3T3)/IC50 of cancer cells
Protocol: as §1, §2, §3

HepG2 cells = test: MTT assay, antiproliferative activity, HepG2; format: cell-based, human; conditions: for IC50: Homo sapiens, HepG2, MTT, 24 h treatment, mean ± SD; for Selectivity Index (SI) HepG2: IC50 of healthy cells (NIH/3T3)/IC50 of cancer cells
Protocol: as §1, §2, §3

PI3K [1] = test: PI3K protein levels by ELISA in HepG2 cells; format: cell-based, human; conditions: IC50 concentration, 24 h, compared to 1% DMSO control
Protocol: (§4) The protein levels of PI3K in MCF-7 and HepG2 cells were assessed using enzyme-linked immunosorbent assay (ELISA) kits. […] After the incubation period, the medium was collected, and PI3K protein levels were measured using ELISA kits according to the manufacturer’s instructions (Cat no: ELK9879, ELK Biotechnology, Denver, USA).

PI3K [2] = test: PI3K protein levels by ELISA in MCF-7 cells; format: cell-based, human; conditions: IC50 concentration, 24 h, compared to 1% DMSO control
Protocol: as §4

SMILES	IC50 (NIH/3T3 cells) [µM]	IC50 (MCF-7 cells) [µM]	Selectivity Index (SI) MCF-7 (MCF-7 cells)	IC50 (A549 cells) [µM]	Selectivity Index (SI) A549 (A549 cells)	IC50 (HepG2 cells) [µM]	Selectivity Index (SI) HepG2 (HepG2 cells)	PI3K protein levels in HepG2 cells (PI3K [1])	PI3K protein levels in MCF-7 cells (PI3K [2])
Cc1csc(-n2ncc3cccn3c2=O)n1 [Compound 13, 3-(4-methylthiazol-2-yl)pyrrolo[1,2-d][1,2,4]triazin-4(3H)-one]	> 100	> 100	1.01	> 100	0.94	> 100	1.32	–	–
O=c1n(-c2nc(-c3ccccc3)cs2)ncc2cccn12 [Compound 14, 3-(4-phenylthiazol-2-yl)pyrrolo[1,2-d][1,2,4]triazin-4(3H)-one]	> 100	> 100	0.96	> 100	1.25	> 100	1.04	–	–
Cc1ccc(-c2csc(-n3ncc4cccn4c3=O)n2)cc1 [Compound 15, 3-(4-(p-tolyl)thiazol-2-yl)pyrrolo[1,2-d][1,2,4]triazin-4(3H)-one]	> 100	> 100	1.01	> 100	0.84	> 100	0.85	–	–
O=c1n(-c2nc(-c3ccc(O)cc3)cs2)ncc2cccn12 [Compound 16, 3-(4-(4-hydroxyphenyl)thiazol-2-yl)pyrrolo[1,2-d][1,2,4]triazin-4(3H)-one]	> 100	> 100	1.10	> 100	1.32	> 100	1.02	–	–
COc1ccc(-c2csc(-n3ncc4cccn4c3=O)n2)cc1 [Compound 17, 3-(4-(4-methoxyphenyl)thiazol-2-yl)pyrrolo[1,2-d][1,2,4]triazin-4(3H)-one]	> 100	> 100	1.34	> 100	1.44	> 100	1.22	–	–
O=c1n(-c2nc(-c3ccc([N+](=O)[O-])cc3)cs2)ncc2cccn12 [Compound 18, 3-(4-(4-nitrophenyl)thiazol-2-yl)pyrrolo[1,2-d][1,2,4]triazin-4(3H)-one]	> 100	79.19 ± 0.61	2.08	> 100	1.51	> 100	1.60	–	–
O=c1n(-c2nc(-c3ccc(C(F)(F)F)cc3)cs2)ncc2cccn12 [Compound 19, 3-(4-(4-(trifluoromethyl)phenyl)thiazol-2-yl)pyrrolo[1,2-d][1,2,4]triazin-4(3H)-one]	> 100	61.8 ± 1.42	2.41	79.5 ± 1.13	1.87	52.8 ± 0.79	2.82	–	–
O=c1n(-c2nc(-c3ccc(F)cc3)cs2)ncc2cccn12 [Compound 20, 3-(4-(4-fluorophenyl)thiazol-2-yl)pyrrolo[1,2-d][1,2,4]triazin-4(3H)-one]	> 100	39.8 ± 0.54	4.93	44.5 ± 0.51	4.41	69.7 ± 1.26	2.81	–	–
O=c1n(-c2nc(-c3ccc(Cl)cc3)cs2)ncc2cccn12 [Compound 21, 3-(4-(4-chlorophenyl)thiazol-2-yl)pyrrolo[1,2-d][1,2,4]triazin-4(3H)-one]	> 100	11.2 ± 0.12	9.51	39.2 ± 1.41	2.72	10.2 ± 0.95	10.40	did not alter PI3K levels	significantly reduced; also recorded: did reduce PI3K levels
O=c1n(-c2nc(-c3ccc(Br)cc3)cs2)ncc2cccn12 [Compound 22, 3-(4-(4-bromophenyl)thiazol-2-yl)pyrrolo[1,2-d][1,2,4]triazin-4(3H)-one]	93.46 ± 0.74	55.6 ± 1.05	1.68	71.2 ± 0.74	1.31	51.85 ± 0.23	1.80	–	–
COc1ccc(-c2csc(-n3ncc4cccn4c3=O)n2)cc1OC [Compound 23, 3-(4-(3,4-dimethoxyphenyl)thiazol-2-yl)pyrrolo[1,2-d][1,2,4]triazin-4(3H)-one]	83.44 ± 0.15	15.2 ± 0.183	5.49	43.3 ± 1.09	–	17.2 ± 0.81	4.85	–	–
O=c1n(-c2nc(-c3ccc(F)c(F)c3)cs2)ncc2cccn12 [Compound 24, 3-(4-(3,4-difluorophenyl)thiazol-2-yl)pyrrolo[1,2-d][1,2,4]triazin-4(3H)-one]	> 100	33.2 ± 0.49	4.72	45.23 ± 0.41	3.46	25.3 ± 1.06	6.19	–	–
O=c1n(-c2nc(-c3ccc(F)c(Cl)c3)cs2)ncc2cccn12 [Compound 26, 3-(4-(3-chloro-4-fluorophenyl)thiazol-2-yl)pyrrolo[1,2-d][1,2,4]triazin-4(3H)-one]	> 100	14.2 ± 0.42	–	25.2 ± 0.39	5.53	15.1 ± 0.61	9.22	–	significantly reduced
O=c1n(-c2nc(-c3ccc(-c4ccccc4)cc3)cs2)ncc2cccn12 [Compound 28, 3-(4-([1,1′-biphenyl]-4-yl)thiazol-2-yl)pyrrolo[1,2-d][1,2,4]triazin-4(3H)-one]	> 100	63.17 ± 0.35	2.79	78.23 ± 0.05	2.25	44.8 ± 1.06	3.93	–	–
O=c1n(-c2nc(-c3ccc4ccccc4c3)cs2)ncc2cccn12 [Compound 29, 3-(4-(naphthalen-2-yl)thiazol-2-yl)pyrrolo[1,2-d][1,2,4]triazin-4(3H)-one]	> 100	> 100	1.03	> 100	1.19	> 100	1.26	–	–
O=c1n(-c2nc(-c3cc4ccccc4o3)cs2)ncc2cccn12 [Compound 30, 3-(4-(benzofuran-2-yl)thiazol-2-yl)pyrrolo[1,2-d][1,2,4]triazin-4(3H)-one]	> 100	> 100	1.57	> 100	1.51	> 100	1.90	–	–
O=c1n(-c2nc(-c3ccco3)cs2)ncc2cccn12 [Compound 31, 3-(4-(furan-2-yl)thiazol-2-yl)pyrrolo[1,2-d][1,2,4]triazin-4(3H)-one]	> 100	91.2 ± 1.06	1.91	> 100	1.67	> 100	1.69	–	–
O=c1n(-c2nc(-c3cccs3)cs2)ncc2cccn12 [Compound 32, 3-(4-(thiophen-2-yl)thiazol-2-yl)pyrrolo[1,2-d][1,2,4]triazin-4(3H)-one]	> 100	83.71 ± 0.81	2.43	> 100	1.68	> 100	2.00	–	–
COc1cccc2c1C(=O)c1c(O)c3c(c(O)c1C2=O)C[C@@](O)(C(=O)CO)C[C@@H]3O[C@H]1C[C@H](N)[C@H](O)[C@H](C)O1 [Dox, doxorubicin, reference compound]	3.56 ± 0.02	1.34 ± 0.07	2.6	0.61 ± 0.12	5.83	1.27 ± 0.24	2.8	–	–
